ChEMBL document CHEMBL5291721, “A preclinical secondary pharmacology resource illuminates target-adverse drug reaction associations of marketed drugs” (Nat Commun, 2023)

Columns and labels:
[1] = molecular target: Sodium channel protein type 5 subunit alpha (Homo sapiens, UniProt Q14524); type: functional, cell-based
[2] = molecular target: T1, Histamine H1 receptor (Homo sapiens, UniProt P35367); type: functional, cell-based
[3] = molecular target: T1, Histamine H1 receptor; type: functional, cell-based; remark: listed apart in the source
[4] = molecular target: T2, Peroxisome proliferator-activated receptor gamma (Homo sapiens, UniProt P37231); type: functional
T2 sequence (P37231 whole entry): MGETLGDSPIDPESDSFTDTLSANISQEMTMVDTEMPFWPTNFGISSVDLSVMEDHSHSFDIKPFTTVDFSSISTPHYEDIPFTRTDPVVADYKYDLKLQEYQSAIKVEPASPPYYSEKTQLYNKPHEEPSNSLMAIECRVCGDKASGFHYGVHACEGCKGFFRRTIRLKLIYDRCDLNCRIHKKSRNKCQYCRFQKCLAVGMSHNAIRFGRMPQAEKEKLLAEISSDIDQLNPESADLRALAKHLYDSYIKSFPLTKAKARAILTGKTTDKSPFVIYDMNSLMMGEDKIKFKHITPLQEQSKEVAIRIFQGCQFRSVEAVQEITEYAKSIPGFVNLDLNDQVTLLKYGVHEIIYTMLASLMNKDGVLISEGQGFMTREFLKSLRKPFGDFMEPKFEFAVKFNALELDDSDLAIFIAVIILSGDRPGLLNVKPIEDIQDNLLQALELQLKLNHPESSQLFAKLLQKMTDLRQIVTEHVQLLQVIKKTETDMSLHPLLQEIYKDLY

[5] = molecular target: T2, Peroxisome proliferator-activated receptor gamma; type: functional; remark: listed apart in the source
[6] = molecular target: Substance-P receptor (Homo sapiens, UniProt P25103)
[7] = molecular target: Hydroxycarboxylic acid receptor 2 (Homo sapiens, UniProt Q8TDS4)
[8] = molecular target: Estrogen receptor beta (Homo sapiens, UniProt Q92731)
[9] = molecular target: T3, D(4) dopamine receptor (Homo sapiens, UniProt P21917)
T3 sequence (P21917 whole entry): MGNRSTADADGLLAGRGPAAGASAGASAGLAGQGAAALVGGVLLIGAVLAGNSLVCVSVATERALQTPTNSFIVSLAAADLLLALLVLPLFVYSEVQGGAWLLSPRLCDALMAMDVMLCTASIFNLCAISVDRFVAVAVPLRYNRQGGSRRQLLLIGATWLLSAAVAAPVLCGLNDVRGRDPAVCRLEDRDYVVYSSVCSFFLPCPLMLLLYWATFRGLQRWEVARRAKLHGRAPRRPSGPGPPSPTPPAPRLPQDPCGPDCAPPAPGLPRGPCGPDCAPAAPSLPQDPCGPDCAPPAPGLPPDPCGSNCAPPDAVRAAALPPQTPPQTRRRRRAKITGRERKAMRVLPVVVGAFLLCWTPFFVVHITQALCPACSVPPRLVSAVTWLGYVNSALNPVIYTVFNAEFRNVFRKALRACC

[10] = molecular target: D(1A) dopamine receptor (Homo sapiens, UniProt P21728)
Sequence of D(1A) dopamine receptor (P21728 whole entry): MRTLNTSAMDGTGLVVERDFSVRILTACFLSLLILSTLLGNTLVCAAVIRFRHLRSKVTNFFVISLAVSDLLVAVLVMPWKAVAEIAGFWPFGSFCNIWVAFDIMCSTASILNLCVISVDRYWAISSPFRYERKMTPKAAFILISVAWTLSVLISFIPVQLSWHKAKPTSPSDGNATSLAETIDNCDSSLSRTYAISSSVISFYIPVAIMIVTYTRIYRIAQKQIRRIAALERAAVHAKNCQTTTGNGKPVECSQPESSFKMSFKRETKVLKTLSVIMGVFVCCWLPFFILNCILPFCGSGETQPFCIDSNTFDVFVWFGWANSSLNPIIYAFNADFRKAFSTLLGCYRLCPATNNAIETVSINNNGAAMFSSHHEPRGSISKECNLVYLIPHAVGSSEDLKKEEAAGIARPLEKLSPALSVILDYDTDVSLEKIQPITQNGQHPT

[11] = molecular target: 5-hydroxytryptamine receptor 7 (Homo sapiens, UniProt P34969)
[12] = molecular target: D(1B) dopamine receptor (Homo sapiens, UniProt P21918)
[13] = molecular target: Gamma-aminobutyric acid type B receptor subunit 1 (Homo sapiens, UniProt Q9UBS5)
[14] = molecular target: 5-hydroxytryptamine receptor 6 (Homo sapiens, UniProt P50406)
Sequence of 5-hydroxytryptamine receptor 6 (P50406 whole entry): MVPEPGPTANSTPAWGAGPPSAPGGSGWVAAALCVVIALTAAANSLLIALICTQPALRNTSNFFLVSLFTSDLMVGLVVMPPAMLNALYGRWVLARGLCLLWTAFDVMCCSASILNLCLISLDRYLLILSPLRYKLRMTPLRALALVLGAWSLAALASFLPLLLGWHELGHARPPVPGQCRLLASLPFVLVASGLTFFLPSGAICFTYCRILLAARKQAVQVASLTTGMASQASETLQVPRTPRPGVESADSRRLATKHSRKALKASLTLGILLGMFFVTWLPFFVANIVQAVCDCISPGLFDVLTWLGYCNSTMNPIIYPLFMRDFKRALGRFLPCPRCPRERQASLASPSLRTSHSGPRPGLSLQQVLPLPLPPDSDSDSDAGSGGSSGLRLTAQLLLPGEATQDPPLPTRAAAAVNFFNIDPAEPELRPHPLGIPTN

[15] = molecular target: Cannabinoid receptor 1 (Homo sapiens, UniProt P21554); type: functional
[16] = molecular target: T4, Substance-K receptor (Homo sapiens, UniProt P21452)
T4 sequence (P21452 whole entry): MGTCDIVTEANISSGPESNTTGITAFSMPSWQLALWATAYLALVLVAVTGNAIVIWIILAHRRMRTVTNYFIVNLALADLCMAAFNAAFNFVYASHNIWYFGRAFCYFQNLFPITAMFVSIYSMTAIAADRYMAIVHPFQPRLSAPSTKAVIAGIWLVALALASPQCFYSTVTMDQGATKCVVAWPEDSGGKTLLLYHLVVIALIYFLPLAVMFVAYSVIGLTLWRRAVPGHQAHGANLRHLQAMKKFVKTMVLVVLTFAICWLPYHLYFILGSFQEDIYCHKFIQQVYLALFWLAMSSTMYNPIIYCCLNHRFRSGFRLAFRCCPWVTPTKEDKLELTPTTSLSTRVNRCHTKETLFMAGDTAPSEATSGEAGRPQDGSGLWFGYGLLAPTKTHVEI

[17] = molecular target: T5, Muscarinic acetylcholine receptor M4 (Homo sapiens, UniProt P08173)
T5 sequence (P08173 whole entry): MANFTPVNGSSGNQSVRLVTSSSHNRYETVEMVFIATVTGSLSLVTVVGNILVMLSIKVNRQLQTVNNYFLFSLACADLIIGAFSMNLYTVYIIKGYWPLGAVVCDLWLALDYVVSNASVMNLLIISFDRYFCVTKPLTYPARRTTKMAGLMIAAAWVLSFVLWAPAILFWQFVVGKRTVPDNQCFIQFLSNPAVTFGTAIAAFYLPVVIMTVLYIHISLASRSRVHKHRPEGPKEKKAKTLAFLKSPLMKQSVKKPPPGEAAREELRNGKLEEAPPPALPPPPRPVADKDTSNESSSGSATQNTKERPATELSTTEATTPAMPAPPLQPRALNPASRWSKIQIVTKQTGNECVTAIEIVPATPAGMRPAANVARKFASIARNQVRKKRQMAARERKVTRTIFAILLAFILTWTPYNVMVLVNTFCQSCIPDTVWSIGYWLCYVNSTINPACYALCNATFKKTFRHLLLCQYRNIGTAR

[18] = molecular target: 5-hydroxytryptamine receptor 5A (Homo sapiens, UniProt P47898)
[19] = molecular target: Voltage-dependent L-type calcium channel subunit alpha-1C (Homo sapiens, UniProt Q13936); type: functional, cell-based
Sequence of Voltage-dependent L-type calcium channel subunit alpha-1C (Q13936 whole entry): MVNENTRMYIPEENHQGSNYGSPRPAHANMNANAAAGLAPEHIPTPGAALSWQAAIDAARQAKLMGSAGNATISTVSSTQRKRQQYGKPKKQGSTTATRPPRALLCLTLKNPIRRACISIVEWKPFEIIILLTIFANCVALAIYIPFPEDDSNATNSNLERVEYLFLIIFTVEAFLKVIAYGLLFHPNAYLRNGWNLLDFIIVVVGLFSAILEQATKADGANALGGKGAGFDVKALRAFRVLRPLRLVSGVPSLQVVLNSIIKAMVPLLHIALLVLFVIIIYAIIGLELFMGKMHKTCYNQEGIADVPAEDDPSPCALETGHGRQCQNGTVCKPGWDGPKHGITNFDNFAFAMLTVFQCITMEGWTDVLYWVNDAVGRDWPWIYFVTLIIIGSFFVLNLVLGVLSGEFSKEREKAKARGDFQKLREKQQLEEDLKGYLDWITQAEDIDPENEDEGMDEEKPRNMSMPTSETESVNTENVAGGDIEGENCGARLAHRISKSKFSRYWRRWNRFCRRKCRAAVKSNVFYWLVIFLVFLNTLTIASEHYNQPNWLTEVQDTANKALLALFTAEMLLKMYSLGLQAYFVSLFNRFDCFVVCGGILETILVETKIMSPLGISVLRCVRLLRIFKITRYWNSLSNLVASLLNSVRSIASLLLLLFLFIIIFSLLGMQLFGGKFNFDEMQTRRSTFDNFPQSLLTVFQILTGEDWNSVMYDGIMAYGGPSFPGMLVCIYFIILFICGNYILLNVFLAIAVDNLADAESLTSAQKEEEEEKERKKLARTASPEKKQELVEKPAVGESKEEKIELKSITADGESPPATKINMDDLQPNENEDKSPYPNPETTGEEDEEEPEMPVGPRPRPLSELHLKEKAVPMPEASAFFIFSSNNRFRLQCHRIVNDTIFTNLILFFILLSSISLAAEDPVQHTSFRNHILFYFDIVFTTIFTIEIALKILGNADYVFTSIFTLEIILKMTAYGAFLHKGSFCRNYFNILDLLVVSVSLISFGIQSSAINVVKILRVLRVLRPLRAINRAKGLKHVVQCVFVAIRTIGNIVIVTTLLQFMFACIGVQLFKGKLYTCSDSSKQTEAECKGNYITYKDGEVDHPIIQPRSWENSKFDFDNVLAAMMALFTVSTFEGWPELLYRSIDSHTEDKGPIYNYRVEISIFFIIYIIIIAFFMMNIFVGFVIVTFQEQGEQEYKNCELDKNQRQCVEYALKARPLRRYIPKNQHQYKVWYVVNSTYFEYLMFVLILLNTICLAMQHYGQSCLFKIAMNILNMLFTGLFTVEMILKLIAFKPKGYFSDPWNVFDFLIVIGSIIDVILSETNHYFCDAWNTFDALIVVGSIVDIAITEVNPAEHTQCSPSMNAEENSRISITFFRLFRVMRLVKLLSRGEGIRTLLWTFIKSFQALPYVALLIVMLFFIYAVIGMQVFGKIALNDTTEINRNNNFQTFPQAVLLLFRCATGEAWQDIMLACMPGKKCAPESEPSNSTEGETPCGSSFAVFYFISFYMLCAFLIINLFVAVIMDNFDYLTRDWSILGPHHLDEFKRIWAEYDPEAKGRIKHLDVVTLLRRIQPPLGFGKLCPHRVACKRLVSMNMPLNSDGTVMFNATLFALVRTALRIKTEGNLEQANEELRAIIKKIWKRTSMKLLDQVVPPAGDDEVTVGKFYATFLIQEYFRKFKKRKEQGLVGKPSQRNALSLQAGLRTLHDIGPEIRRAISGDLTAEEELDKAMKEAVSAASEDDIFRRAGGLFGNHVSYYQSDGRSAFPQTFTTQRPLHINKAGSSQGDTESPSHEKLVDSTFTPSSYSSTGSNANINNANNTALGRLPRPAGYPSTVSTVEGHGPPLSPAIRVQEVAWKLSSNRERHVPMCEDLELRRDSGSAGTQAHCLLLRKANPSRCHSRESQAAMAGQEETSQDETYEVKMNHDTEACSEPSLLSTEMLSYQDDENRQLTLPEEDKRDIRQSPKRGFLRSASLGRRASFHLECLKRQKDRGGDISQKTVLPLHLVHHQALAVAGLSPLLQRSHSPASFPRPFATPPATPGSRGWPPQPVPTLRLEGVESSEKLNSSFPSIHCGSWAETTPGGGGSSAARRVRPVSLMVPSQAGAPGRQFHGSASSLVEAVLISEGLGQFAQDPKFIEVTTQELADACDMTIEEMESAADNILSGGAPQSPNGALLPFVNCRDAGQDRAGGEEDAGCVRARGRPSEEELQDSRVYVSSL
Further: assay procedure not described here.

Sequence of Sodium channel protein type 5 subunit alpha (Q14524 whole entry): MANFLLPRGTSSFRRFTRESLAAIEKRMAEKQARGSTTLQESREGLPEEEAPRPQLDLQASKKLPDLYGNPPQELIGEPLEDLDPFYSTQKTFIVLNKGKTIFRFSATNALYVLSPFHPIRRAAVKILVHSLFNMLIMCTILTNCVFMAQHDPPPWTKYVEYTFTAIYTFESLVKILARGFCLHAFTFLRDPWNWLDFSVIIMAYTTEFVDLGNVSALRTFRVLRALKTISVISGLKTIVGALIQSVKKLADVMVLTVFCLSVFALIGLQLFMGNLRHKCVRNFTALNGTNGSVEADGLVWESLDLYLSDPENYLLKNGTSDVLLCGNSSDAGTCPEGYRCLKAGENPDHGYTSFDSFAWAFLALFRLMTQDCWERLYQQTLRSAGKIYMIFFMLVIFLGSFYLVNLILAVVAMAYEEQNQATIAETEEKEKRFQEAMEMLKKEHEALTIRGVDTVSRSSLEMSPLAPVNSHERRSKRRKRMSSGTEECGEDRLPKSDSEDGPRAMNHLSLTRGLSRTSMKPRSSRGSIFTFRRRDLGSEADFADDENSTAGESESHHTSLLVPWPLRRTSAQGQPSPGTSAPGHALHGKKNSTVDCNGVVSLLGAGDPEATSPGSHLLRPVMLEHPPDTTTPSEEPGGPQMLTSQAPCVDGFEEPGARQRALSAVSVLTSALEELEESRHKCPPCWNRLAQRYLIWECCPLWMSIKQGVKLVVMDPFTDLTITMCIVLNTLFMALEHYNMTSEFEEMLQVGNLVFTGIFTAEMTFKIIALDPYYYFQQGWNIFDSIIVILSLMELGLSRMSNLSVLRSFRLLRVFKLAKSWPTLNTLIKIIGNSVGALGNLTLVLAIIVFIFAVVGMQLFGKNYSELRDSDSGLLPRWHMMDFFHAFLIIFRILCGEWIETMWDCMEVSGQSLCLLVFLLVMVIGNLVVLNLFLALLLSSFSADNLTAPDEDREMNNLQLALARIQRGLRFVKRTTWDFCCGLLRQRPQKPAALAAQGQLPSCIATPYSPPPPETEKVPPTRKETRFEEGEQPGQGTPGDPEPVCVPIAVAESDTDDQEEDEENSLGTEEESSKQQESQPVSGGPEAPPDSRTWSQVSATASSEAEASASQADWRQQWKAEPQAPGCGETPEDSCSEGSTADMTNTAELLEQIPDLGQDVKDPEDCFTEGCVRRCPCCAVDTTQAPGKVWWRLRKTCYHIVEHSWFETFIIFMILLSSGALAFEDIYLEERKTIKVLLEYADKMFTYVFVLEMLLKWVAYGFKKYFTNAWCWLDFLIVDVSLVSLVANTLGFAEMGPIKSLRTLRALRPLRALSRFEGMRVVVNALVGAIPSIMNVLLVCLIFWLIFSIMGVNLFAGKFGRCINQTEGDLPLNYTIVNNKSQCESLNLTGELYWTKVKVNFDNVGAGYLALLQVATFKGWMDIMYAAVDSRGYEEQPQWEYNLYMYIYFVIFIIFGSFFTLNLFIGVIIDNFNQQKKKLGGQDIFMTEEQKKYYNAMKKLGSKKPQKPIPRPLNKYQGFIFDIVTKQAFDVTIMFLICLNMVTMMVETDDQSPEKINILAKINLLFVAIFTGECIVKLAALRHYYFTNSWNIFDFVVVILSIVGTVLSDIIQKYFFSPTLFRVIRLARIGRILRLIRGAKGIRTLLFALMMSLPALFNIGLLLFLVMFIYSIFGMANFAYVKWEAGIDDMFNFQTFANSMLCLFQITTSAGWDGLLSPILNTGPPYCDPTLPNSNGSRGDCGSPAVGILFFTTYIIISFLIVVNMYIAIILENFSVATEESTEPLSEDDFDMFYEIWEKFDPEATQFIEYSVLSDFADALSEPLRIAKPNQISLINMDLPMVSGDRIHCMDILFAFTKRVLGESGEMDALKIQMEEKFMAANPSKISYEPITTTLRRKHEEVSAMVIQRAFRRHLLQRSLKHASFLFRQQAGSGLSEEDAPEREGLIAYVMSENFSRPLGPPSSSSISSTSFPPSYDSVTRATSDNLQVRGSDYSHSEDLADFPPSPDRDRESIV

Molecule COC(=O)C1=C(C)NC(C)=C(C(=O)OC(C)C)C1c1cccc2nonc12 (stereo not given) [ISRADIPINE] has an AC50 [1] of 2.98 µM.

For CC/C=C\C/C=C\C/C=C\CCCCCCCC(=O)O [LINOLENIC ACID], the AC50 [2] was over 30 µM and the AC50 [3] was over 30 µM.

Work on Cc1cccc(C)c1NC(=O)C1CCCCN1C (stereo not given) [MEPIVACAINE] yielded an AC50 [4] of over 30 µM and an AC50 [5] of over 30 µM.

With C[C@H]1C[C@@H]2[C@H]([C@@H](O)C[C@@]3(C)[C@H]2CC[C@]3(O)C(=O)COC(=O)CCC(=O)O)[C@@]2(C)C=CC(=O)C=C12 [METHYLPREDNISOLONE HEMISUCCINATE] the AC50 [2] was over 30 µM, the AC50 [4] was over 30 µM and the AC50 [5] was over 30 µM. The AC50 [3] was over 30 µM.

Cc1cc(-c2ccccc2)nnc1NCCN1CCOCC1 [MINAPRINE] gave an AC50 [6] of over 10 µM, an AC50 [7] of over 10 µM and an AC50 [8] of over 30 µM. The AC50 [9] was over 10 µM and the AC50 [10] was over 10 µM.

CCCCC(C)(O)C/C=C/[C@H]1[C@H](O)CC(=O)[C@@H]1CCCCCCC(=O)OC (stereo not given in full) [MISOPROSTOL] gave an AC50 [2] of over 30 µM and an AC50 [3] of over 30 µM.

Molecule NC(=O)C[S+]([O-])C(c1ccccc1)c1ccccc1 (stereo not given) [MODAFINIL] has an AC50 [11] of over 10 µM, an AC50 [12] of over 10 µM and an AC50 [13] of over 10 µM. The AC50 [6] was over 10 µM, the AC50 [14] was over 10 µM and the AC50 [15] was over 10 µM. It also gave an AC50 [16] of over 10 µM, an AC50 [17] of over 10 µM and an AC50 [8] of over 30 µM. The AC50 [9] was over 10 µM, the AC50 [18] was over 10 µM and the AC50 [10] was over 10 µM.

CCCCCCC(C)(C)c1cc(O)c2c(c1)OC(C)(C)C1CCC(=O)CC21 (stereo not given) [NABILONE] showed an AC50 [2] of over 30 µM, an AC50 [4] of over 30 µM and an AC50 [5] of over 30 µM. The AC50 [3] was over 30 µM.

O=C(O)CCCc1ccccc1 [PHENYLBUTANOIC ACID] was tested, and the AC50 [11] was over 10 µM, the AC50 [13] was over 10 µM and the AC50 [6] was over 10 µM. It also gave an AC50 [14] of over 10 µM, an AC50 [15] of over 10 µM and an AC50 [16] of over 10 µM. The AC50 [17] was over 10 µM, the AC50 [8] was over 30 µM and the AC50 [9] was over 10 µM.

CC(Cc1ccccc1)NCCC(c1ccccc1)c1ccccc1 (stereo not given) [PRENYLAMINE] was tested, and the AC50 [1] was 7.1 µM and the AC50 [19] was 47 µM.

CCCOc1ccc(C(=O)OCCN(CC)CC)cc1N [PROPARACAINE] was tested, and the AC50 [4] was over 30 µM and the AC50 [5] was over 30 µM.

For Nc1nc2ccc(OC(F)(F)F)cc2s1 [RILUZOLE], the AC50 [4] was over 30 µM, the AC50 [19] was over 50 µM and the AC50 [5] was over 30 µM.

O=C1NCCN1CCN1CCC(c2cn(-c3ccc(F)cc3)c3ccc(Cl)cc23)CC1 [SERTINDOLE] was tested, and the AC50 [1] was 21 µM and the AC50 [19] was over 50 µM.

Molecule Cc1c(C(=O)Nc2ccc(N3C[C@@H](C)O[C@@H](C)C3)nc2)cccc1-c1ccc(OC(F)(F)F)cc1 [SONIDEGIB] has an AC50 [6] of over 10 µM, an AC50 [8] of over 30 µM and an AC50 [9] of over 10 µM. The AC50 [10] was over 10 µM.

COc1ccc(C(=O)N2CCN(c3ccc4c(c3)CCC(=O)N4)CC2)cc1OC [VESNARINONE] showed an AC50 [2] of over 30 µM and an AC50 [3] of over 30 µM.

Cc1ccc(-c2nc3ccc(C)cn3c2CC(=O)N(C)C)cc1 [ZOLPIDEM] gave an AC50 [11] of over 10 µM, an AC50 [12] of over 10 µM and an AC50 [13] of over 10 µM. For the same molecule, the AC50 [6] was over 10 µM, the AC50 [14] was over 10 µM and the AC50 [15] was over 10 µM. For the same molecule, the AC50 [16] was over 10 µM, the AC50 [17] was over 10 µM and the AC50 [9] was over 10 µM. For the same molecule, the AC50 [18] was over 10 µM and the AC50 [10] was over 10 µM.

With CN1CCN(C(=O)OC2c3nccnc3C(=O)N2c2ccc(Cl)cn2)CC1 (stereo not given) [ZOPICLONE] the AC50 [11] was over 10 µM, the AC50 [4] was over 30 µM and the AC50 [14] was over 10 µM. The AC50 [15] was over 10 µM, the AC50 [5] was over 30 µM and the AC50 [8] was over 30 µM. The AC50 [9] was over 10 µM and the AC50 [10] was over 10 µM.
